These results are taken from ChEMBL document CHEMBL1268866, “Factor Xa inhibitors: next-generation antithrombotic agents” (J Med Chem, 2010).

Bounds are passed on as bounds.

A short description of data set [1]: in vivo. Particulars: dog.
Data set [2] is described as follows: Oral bioavailability in monkey. The settings on record: in vivo.
The nature of data set [3]: Clearance in monkey. Type of data set: ADME, organism-based, Macaca mulatta. Particulars: rhesus monkey, in vivo.
Data set [4] can be described thus: Volume of distribution at steady state in monkey. In kind it is ADME, organism-based, Macaca mulatta. Particulars: rhesus monkey, in vivo; read-out: Vdss.
The nature of data set [5]: in vivo. The settings on record: dog. This is another data set of the same source.
Data set [6] can be described thus: in vivo. Particulars: dog. This is another data set of the same source.
Data set [7] is described as follows: in vivo. Particulars: dog, po.
Data set [8] can be described thus: Oral bioavailability in rat. In kind it is ADME, organism-based. Particulars: in vivo.
Data set [9] can be described thus: Half life in rat. Type of data set: ADME, organism-based. Particulars: in vivo.
Data set [10] is described as follows: Volume of distribution at steady state in rat. The settings on record: in vivo, read-out: Vdss. Type of data set: ADME, organism-based.
The nature of data set [11]: Tmax in po dosed human. Particulars: in vivo. In kind it is ADME, organism-based.
A short description of data set [12]: Drug excretion in rat feces. Type of data set: ADME, tissue-based. Particulars: faeces, read-out: Activity.
Data set [13] is described as follows: Drug excretion in dog feces. Type of data set: ADME, tissue-based, Canis lupus familiaris. The settings on record: faeces, read-out: Activity.
Data set [14] can be described thus: Drug excretion in rat urine. Particulars: read-out: Activity. Type of data set: ADME.
Data set [15] in a line: Drug excretion in dog urine. In kind it is ADME, Canis lupus familiaris. The settings on record: read-out: Activity.
Data set [16] is described as follows: Half life in human. Type of data set: ADME, organism-based. Particulars: in vivo.
Data set [17] in a line: Clearance in human. In kind it is ADME, organism-based. Particulars: in vivo.
Data set [18] is filed under the species Canis familiaris. Kind of data set: Plasma concentration in dog. In kind it is ADME, organism-based, Canis lupus familiaris. Particulars: in vivo.
Data set [19] can be described thus: Half life in monkey. Particulars: rhesus monkey, in vivo. Type of data set: ADME, organism-based, Macaca mulatta.
The nature of data set [20]: (§1) Clearance in rat. The settings on record: in vivo. In kind it is ADME, organism-based.
Data set [21] is described as follows: Half life in po dosed human. In kind it is ADME, organism-based. Particulars: in vivo.
The nature of data set [22]: Oral bioavailability in chimpanzee. In kind it is ADME, organism-based, Pan troglodytes. Particulars: in vivo.
Data set [23] is described as follows: Drug excretion in human feces. In kind it is ADME, tissue-based. Particulars: faeces, read-out: Activity.
Data set [24] can be described thus: Volume of distribution in chimpanzee. Type of data set: ADME, organism-based, Pan troglodytes. Particulars: in vivo.
Data set [25] is filed under the species Rattus norvegicus. The data set is described as §1. Type of data set: ADME, organism-based. Particulars: in vivo.
The nature of data set [26]: Drug excretion in human urine. Type of data set: ADME, tissue-based. Particulars: read-out: Activity.

Compound `O=C(Nc1ccc(-n2ccccc2=O)cn1)[C@H]1C[C@](O)(c2ccc(F)cc2F)CN1C(=O)Nc1ccc(Cl)cc1` showed a half-life in data set [1] of 12.6 h.
The compound `O=C([C@H](O)CS(=O)(=O)c1ccc2cc(Cl)ccc2c1)N1CCC(N2CCCNC2=O)CC1` [LETAXABAN] showed a bioavailability in [2] of 52.5%. Further, the clearance in data set [3] was 11.8 mL/min/kg. Further, the Vd in data set [4] was 0.579 L/kg.
Take `CN(C)Cc1nccn1-c1ccc(NC(=O)c2cc(C(F)(F)F)nn2-c2ccc3onc(N)c3c2)cc1`: the Vd in [5] was found to be 4.5 L/kg. The half-life in [1] is 1.6 h. The compound further showed a clearance in data set [6] of 41.7 mL/min/kg. The same compound yielded a bioavailability in [7] of 16%.
Consider `CO[C@@H]1C[C@H](C(=O)Nc2ccc(-c3ccccc3S(C)(=O)=O)cc2F)N(C(=O)Nc2ccc(Cl)cc2)C1`, for which the bioavailability in [8] amounted to 28%.
Still for that read-out and setting: the same measure for `CN(C)C(=N)c1ccc(NC(=O)c2cc(C(F)(F)F)nn2-c2cc3ccccc3cc2F)c(F)c1`: 47%.
In data set [7], `NCc1ccccc1-n1nc(C(F)(F)F)cc1C(=O)Nc1ccc(-c2ccccc2S(N)(=O)=O)cc1F` yielded a bioavailability of 100%.
For the compound `Cc1ncc2n1C(=O)N(C1CCN(C(=O)CCS(=O)(=O)c3ccc4cc(Cl)ccc4c3)CC1)C2`, the bioavailability in data set [2] turned out to be 46%.
`CCCCOC(=O)COc1cc(-c2ccccc2S(C)(=O)=O)ccc1CCNS(=O)(=O)c1cc(C(=N)NO)ccc1O` came in with a bioavailability in [8] of 15%.
As for `Cc1cc(C(=O)Nc2ccc(-n3ccnc3CN(C)C)cc2F)n(-c2ccc3cc(Cl)ccc3c2)n1`, in data set [9], the half-life was 7.2 h. Besides, the bioavailability in data set [8] was 35%.
In data set [1], `O=C1CN(S(=O)(=O)/C=C/c2ccc(Cl)s2)CCN1Cc1cc2c[nH]ccc-2n1` came in with a half-life of 0.867 h. In data set [7], this compound showed a bioavailability of 97%.
Take `O=C(NC[C@H]1CN(c2ccc(N3CCOCC3=O)cc2)C(=O)O1)c1ccc(Cl)s1` [RIVAROXABAN]: the figures for the Vd in data set [5] and in data set [10] were 0.4 L/kg and 0.3 L/kg, respectively. Moreover, in data set [11], the Tmax came out at 1.3 h. Further, the half-life in data set [9] was 1.2 h; in data set [1] it was 0.9 h. Moreover, the dose excreted worked out at 67% in data set [12], 43% in data set [13], 25% in data set [14] and 52% in [15]. In [6], this compound showed a clearance of 5 mL/min/kg. Moreover, the bioavailability in data set [7] was found to be 60%; in data set [8], 57%.
In the case of `CN(C)Cc1ccc(C(=O)Nc2ccc(Cl)cc2C(=O)Nc2ccc(Cl)cn2)cc1`, in [10], the Vd came out at 33 L/kg. Also, in data set [8], the bioavailability is 100%.
For the compound `CC(=N)N1CC[C@H](Oc2ccc([C@H](Cc3ccc4ccc(C(=N)N)cc4c3)C(=O)O)cc2)C1` [DX-9065A], in data set [16], the half-life was greater than 20 h. In addition, in data set [17], the clearance was 120 mL/min.
`CN1CCC(N2CCN(C(=O)[C@H](NC(=O)c3ccc4cc[nH]c4c3)c3ccccc3)CC2)CC1` [LY-517717]: the half-life in data set [9] and in data set [1] was 7 h throughout. For the same compound, the bioavailability in data set [7] and in [8] was 25% in each case.
Consider `O=C1CN(S(=O)(=O)c2cc3ccc(Cl)cc3s2)CCN1Cc1cc2c[nH]ccc-2n1`, for which, in data set [1], the half-life was 0.6 h. Further, the bioavailability in data set [7] came out at 46%.
`CC(=N)N1CCC(Oc2ccc(N(Cc3ccc4ccc(C(=N)N)cc4c3)S(=O)(=O)CC(=O)O)cc2)CC1` [YM-60828] yielded a bioavailability in data set [2] of 20%.
For the compound `COC[C@@H](NC(=O)c1ccc(Cl)s1)C(=O)Nc1ccc(N2CCOCC2=O)c(C)c1`, the results for the bioavailability in data set [2], in data set [7] and in data set [8] were 80%, 60% and 60%, respectively. The compound also showed a clearance in data set [3] of 4.17 mL/min/kg.
With `CS(=O)(=O)c1cc(F)ccc1N1CCN(C(=O)[C@H](NC(=O)c2ccc3ccnc(N)c3c2)c2ccccc2)CC1`, the bioavailability in data set [8] is 27%.
Regarding `Nc1nccc2ccc(CN3CC[C@H](NS(=O)(=O)c4cc5ncccc5s4)C3=O)cc12`, the concentration in data set [18] amounted to 2700 nM. The compound further came in with a bioavailability in data set [7] of 33%.
`CN1CCc2nc(C(=O)N[C@@H]3C[C@@H](C(=O)N(C)C)CC[C@@H]3NC(=O)C(=O)Nc3ccc(Cl)cn3)sc2C1` [EDOXABAN]: the bioavailability in data set [2] came to 50%.
The compound `Cc1cc2cc(N=C(NC#N)N[C@H]3CCCCN(CC(=O)N4CCCC4)C3=O)ccc2o1` registered a bioavailability in data set [8] of 50%.
With `CS(=O)(=O)c1ccccc1-c1ccc(NC(=O)[C@H]2C[C@@H](O)CN2C(=O)Nc2ccc(Cl)cc2)c(F)c1`, in [8], the bioavailability turned out to be 17%.
As to `CO[C@@H]1C[C@H](C(=O)Nc2ccc(-n3ccccc3=O)cc2F)N(C(=O)Nc2ccc(Cl)cc2)C1` [ERIBAXABAN], in data set [5], the Vd turned out to be 0.87 L/kg. This compound displayed a clearance in data set [6] of 2.5 mL/min/kg. Further, the bioavailability in data set [7] is 41%; in data set [8], 82%.
As for `CN1CCc2nc(C(=O)N[C@@H]3C[C@@H](C(=O)N(C)C)CC[C@@H]3NC(=O)c3cc4cc(Cl)ccc4[nH]3)sc2C1`, the clearance in data set [3] came out at 12.4 mL/min/kg. Moreover, the Vd in [4] was determined as 1.49 L/kg. This compound showed a half-life in data set [19] of 1.5 h.
For the compound `CN(C)Cc1nccn1-c1ccc(N2CC[C@H](NS(=O)(=O)/C=C/c3ccc(Cl)s3)C2=O)c(F)c1`, the Vd in data set [10] was determined as 0.6 L/kg. This compound showed a half-life in [9] of 1 h. Also, the clearance in [20] stood at 13 mL/min/kg. In data set [8], this compound came in with a bioavailability of 52%.
In data set [8], `CN(C)Cc1ccccc1-c1ccc(C(=O)Nc2ccc(Cl)cc2C(=O)Nc2ccc(Cl)cn2)cc1` displayed a bioavailability of 100%.
With `COc1ccc(-n2nc(C(N)=O)c3c2C(=O)N(c2ccc(N4CCCCC4=O)cc2)CC3)cc1` [APIXABAN], the Vd in data set [5] was 0.2 L/kg; in [10], 0.31 L/kg; in data set [24], 0.17 L/kg. Further, the half-life in data set [21] was 8 h. For the same compound, the bioavailability is 51% in data set [22] and greater than 50% in [7]. Besides, the dose excreted in data set [23] came out at 47%; in data set [26], 25%. For the same compound, the clearance is 4.33 mL/min/kg in [25] and 0.333 mL/min/kg in data set [6].
